One test concerns Tetrahymena pyriformis W. Kind of test: Antiprotozoal activity, growth inhibition by serial dilution method. The test is classed as cell-based. The note with it: 28° C., 44 to 48 hours, pH 7.0, serial dilution method. The protocol: Antiprotozoal activity of compound (I) was assayed with Tetrahymena pyriformis W as the test organism and a medium composed of 20 g tryptose-peptone (Difco Co.), 1 g yeast extract, 2 glucose, 1000 ml distilled water, 10 ml 1 M phosphate buffer (pH 7.0) as the assay medium. The microorganism was incubated at 28° C. for 44 to 48 hours and the growth inhibitory activity of compound (I) was assayed by the serial dilution method.

For another test, the system named is melanoma B-16. As to the kind of experiment: Therapeutic test in mice, melanoma B-16 transplanted intraperitoneally (life span prolongation). The test is classed as in vivo. The note with it: intraperitoneally once daily for 9 consecutive days. The protocol: (§1) Therapeutic tests were carried out in mice according to NCI-protocols 1,200 and 1,300, Cancer Chemother, Reports, Part 3, 1972, Vol. 3, No. 2, in which leukemia P-388 and melanoma B-16 tumor cells had been intraperitoneally transplanted, compound (I) being administered intraperitoneally once daily for 9 consecutive days.

In a further test the test system is leukemia P-388. Kind of test: Therapeutic test in mice, leukemia P-388 transplanted intraperitoneally (life span prolongation). The test is classed as in vivo. As to conditions: intraperitoneally once daily for 9 consecutive days. The protocol:
as §1

Converted amounts (≈) assume the structure as drawn.

The text below walks through data of patent publication US4248870A, “Maytansinoids and use” (Takeda Chemical Industries, Ltd., priority 1979, dated 1981).

Take `COc1cc2cc(c1Cl)N(C)C(=O)CC(OC(=O)c1ccco1)C1(C)OC1C(C)C1CC(O)(NC(=O)O1)C(OC)C=CC=C(C)C2` (centres unmarked) [Maytansinol 3-(2-furane)carboxylate, Maytansinol 3-(2-furan)carboxylate]: the MIC – broadly, the least concentration at which growth counts as inhibited – in the test on Tetrahymena pyriformis W was ≥ 4 µg/mL.
The same measure, in the same setting: then `COc1cc2cc(c1Cl)N(C)C(=O)CC(OC(=O)c1cccs1)C1(C)OC1C(C)C1CC(O)(NC(=O)O1)C(OC)C=CC=C(C)C2` (centres unmarked) [Maytansinol 3-(2-thiophene)carboxylate], with ≥ 4 µg/mL; and `COc1cc2cc(c1Cl)N(C)C(=O)CC(OC(=O)CCc1ccccc1)C1(C)OC1C(C)C1CC(O)(NC(=O)O1)C(OC)C=CC=C(C)C2` (centres unmarked) [Maytansinol 3-(3-phenyl)propionate, Maytansinol 3-phenylpropionate], with 2 to 4 µg/mL (≈ 2.87 to 5.74 µM).
Still for that read-out and setting: in the case of `COc1cc2cc(c1Cl)N(C)C(=O)CC(OC(=O)c1ccc(Cl)cc1)C1(C)OC1C(C)C1CC(O)(NC(=O)O1)C(OC)C=CC=C(C)C2` (centres unmarked) [Maytansinol 3-(p-chloro)benzoate, Maytansinol 3-p-chlorobenzoate] it was ≥ 4 µg/mL; in that of `COc1cc2cc(c1Cl)N(C)C(=O)CC(OC(=O)c1ccccc1)C1(C)OC1C(C)C1CC(O)(NC(=O)O1)C(OC)C=CC=C(C)C2` (centres unmarked) [Maytansinol 3-benzoate], 4 µg/mL (≈ 5.98 µM).
As to `COc1cc2cc(c1Cl)N(C)C(=O)CC(OC(=O)C1CCCCC1)C1(C)OC1C(C)C1CC(O)(NC(=O)O1)C(OC)C=CC=C(C)C2` (centres unmarked) [Maytansinol 3-cyclohexane carboxylate, Maytansinol 3-cyclohexanecarboxylate], the “Antitumor activities B-16 (T/C %)” value with melanoma B-16 (25 μg/kg) amounted to 193%; with melanoma B-16 (50 μg/kg), 188%; in the test with melanoma B-16 (100 μg/kg), 193%. Besides, the MIC against Tetrahymena pyriformis W was < 2 µg/mL.
As for `COc1cc2cc(c1Cl)N(C)C(=O)CC(OC(=O)C1CC1)C1(C)OC1C(C)C1CC(O)(NC(=O)O1)C(OC)C=CC=C(C)C2` (centres unmarked) [Maytansinol 3-cyclopropane carboxylate, Maytansinol 3-cyclopropanecarboxylate], inhibition of growth against Tetrahymena pyriformis W (MIC) required 4 µg/mL (≈ 6.32 µM).
Consider `COc1cc2cc(c1Cl)N(C)C(=O)CC(OC(=O)Cc1ccccc1)C1(C)OC1C(C)C1CC(O)(NC(=O)O1)C(OC)C=CC=C(C)C2` (centres unmarked) [Maytansinol 3-phenylacetate], for which the “Antitumor activities B-16 (T/C %)” value in the test with melanoma B-16 (12.5 μg/kg) is listed as 207%; in the test on melanoma B-16 (25 μg/kg) it was 230%. In addition, in the test on Tetrahymena pyriformis W, the MIC was < 2 µg/mL. The “Antitumor activities P-388 (T/C %)” value with leukemia P-388 (12.5 μg/kg) is 164%; in the test with leukemia P-388 (25 μg/kg), 185%.
For the molecule `COc1cc2cc(c1Cl)N(C)C(=O)CC(OC(=O)c1ccccn1)C1(C)OC1C(C)C1CC(O)(NC(=O)O1)C(OC)C=CC=C(C)C2` (stereo not drawn) [Maytansinol 3-α-picolinate, Maytansinol 3-picolinate], the entries for the “Antitumor activities B-16 (T/C %)” value in the test on melanoma B-16 (100 μg/kg) and with melanoma B-16 (200 μg/kg) were 176% and 173%, respectively. The MIC with Tetrahymena pyriformis W is ≥ 4 µg/mL. The “Antitumor activities P-388 (T/C %)” value with leukemia P-388 (50 μg/kg) is 193%; in the test on leukemia P-388 (100 μg/kg), 185%.
